Measured values: ChEMBL document CHEMBL1143695, “Synthesis and biological studies of novel 2-aminoalkylethers as potential antiarrhythmic agents for the conversion of atrial fibrillation” (J Med Chem, 2007)
The source made the active and inactive calls. No cut-off for these calls is given here.

Test system: Rattus norvegicus
Test: CNS toxicity in iv dosed Sprague-Dawley rat assessed as cumulative convulsion dose
Type: organism-based
Details: in vivo

| Compound | Activity [µmol/kg] |
| --- | --- |
| Clc1ccc(CCO[C@@H]2CCCC[C@H]2N2CCOCC2)c(Cl)c1 | 94 |
| c1ccc2cc(CCO[C@@H]3CCC[C@H]3N3CCOCC3)ccc2c1 | 187 |
| Brc1ccc(CCCO[C@@H]2CCCC[C@H]2N2CCOCC2)cc1 | 143 |
| COc1ccc(CCO[C@@H]2CCCC[C@H]2N2CCCC2)cc1OC | 118 |
| FC(F)(F)c1ccccc1CCO[C@@H]1CCCC[C@H]1N1CCOCC1 | 134 |
| COc1ccc(CCCO[C@@H]2CCCC[C@H]2N2CCOCC2)c(OC)c1 | 94 |
| COc1ccc(CCO[C@@H]2CCCC[C@H]2N2CCC3(C2)OCCO3)cc1OC | 91 |
| O=C1CCN([C@@H]2CCCC[C@H]2OCCc2ccccc2C(F)(F)F)C1 | 225 |
| Brc1cccc(CCO[C@@H]2CCCC[C@H]2N2CCOCC2)c1 | 131 |
| COc1ccc(CCO[C@@H]2CCCC[C@H]2N2CCC(=O)C2)cc1OC | 235 |
| FC(F)(F)c1ccccc1CCO[C@H]1CCCC[C@H]1N1CCOCC1 (single isomer, unassigned) | 102 |
| COc1ccc(CCCCO[C@@H]2CCCC[C@H]2N2CCOCC2)cc1OC | 67 |
| O=C1CCN([C@@H]2CCCC[C@H]2OCCc2cccc3ccccc23)CC1 | 75 |
| c1ccc2c(CCO[C@@H]3CCCC[C@H]3N3CCOCC3)csc2c1 | 65 |
| C=C[C@H]1CN2CC[C@H]1C[C@@H]2[C@@H](O)c1ccnc2ccc(OC)cc12 [QUINIDINE] | 317 |
| OC1CCN([C@@H]2CCCC[C@H]2OCCc2cccc3ccccc23)C1 (mixture of isomers) | 67 |
| OC1CCN([C@@H]2CCCC[C@@H]2OCCc2cccc3ccccc23)C1 (mixture of isomers) | 70 |
| O=C1CCN([C@@H]2CCCC[C@H]2OCCc2ccc(Br)c3ccccc23)C1 | 246 |
| c1cc(CCO[C@@H]2CCCC[C@H]2N2CCOCC2)c2ccsc2c1 | 54 |
| O=C1CCN([C@@H]2CCCC[C@H]2OCCc2csc3ccccc23)C1 | 203 |
| COc1ccc(CCO[C@@H]2CCCC[C@H]2N2CCNCC2)cc1OC | 392 |
| O=C1CCN([C@@H]2CCCC[C@H]2OCCc2ccccc2Br)C1 | 155 |

| Compound | Activity [µmol/kg] |
| --- | --- |
| COc1ccc(CCCO[C@@H]2CCCC[C@H]2N2CCOCC2)cc1OC | 109 |
| Brc1ccc(CCO[C@H]2CCCC[C@H]2N2CCOCC2)cc1 (single isomer, unassigned) | 6.7 |
| O=C1CCN([C@@H]2CCCC[C@H]2OCCCC2CCCCC2)C1 | 300 |
| Clc1cccc(Cl)c1CCO[C@@H]1CCCC[C@H]1N1CCSC1 | 331 |
| c1ccc2c(CCO[C@@H]3CCCC[C@H]3N3CCC4(C3)OCCO4)cccc2c1 | 41 |
| c1ccc2cc(CCO[C@@H]3CCCC[C@H]3N3CCOCC3)ccc2c1 | 85 |
| COCCN(CCOC)[C@@H]1CCCC[C@H]1OCCc1ccc2ccccc2c1 | 83 |
| OC1CCN([C@@H]2CCCC[C@H]2OCCc2ccccc2Br)C1 (mixture of isomers) | 67 |
| O=C1CCN([C@@H]2CCCC[C@H]2OCC(c2ccccc2)c2ccccc2)C1 | 155 |
| CC(=O)N1CCN([C@@H]2CCCC[C@H]2OCCc2ccc3ccccc3c2)CC1 | 67 |
| c1ccc2cc(OCCO[C@@H]3CCCC[C@H]3N3CCOCC3)ccc2c1 | 62 |
| Brc1ccc(OCCO[C@@H]2CCCC[C@H]2N2CCOCC2)cc1 | 83 |
| O=C1CCN([C@@H]2CCCC[C@H]2OCCc2ccc(Br)cc2Br)C1 | 246 |
| O=C1CCN([C@@H]2CCCC[C@H]2OCCc2ccc(Br)cc2)C1 | 161 |
| Brc1ccc(CCO[C@@H]2CCCC[C@H]2N2CCOCC2)cc1 | 91 |
| CCN(CC)CC(=O)Nc1c(C)cccc1C [LIDOCAINE] | 190 |
| O=C1CCN([C@@H]2CCCC[C@@H]2OCCc2cccc3ccccc23)C1 | 145 |
| Brc1ccccc1CCO[C@@H]1CCCC[C@H]1N1CCOCC1 | 125 |
| Brc1ccc(CCO[C@@H]2CCCC[C@H]2N2CCOCC2)c(Br)c1 | 123 |
| COc1ccc(CCO[C@@H]2CCCC[C@H]2N2CCOCC2)cc1OC | 113 |
| O=C(NCC1CCCCN1)c1cc(OCC(F)(F)F)ccc1OCC(F)(F)F (centres undefined) [FLECAINIDE] | 113 |
| Clc1cccc(Cl)c1CCO[C@@H]1CCCC[C@H]1N1CCOCC1 | 86 |

Test system: Rattus norvegicus
Test: Antiarrhythmic activity in intravenously dosed Sprague-Dawley rat with ischemia-induced arrhythmia
Type: functional, Heart
Details: not given

| Compound | ED50 [µmol/kg/min] |
| --- | --- |
| Clc1ccc(CCO[C@@H]2CCCC[C@H]2N2CCOCC2)c(Cl)c1 | 2.1 |
| c1ccc2cc(CCO[C@@H]3CCC[C@H]3N3CCOCC3)ccc2c1 | 1.5 |
| Brc1ccc(CCCO[C@@H]2CCCC[C@H]2N2CCOCC2)cc1 | 3.5 |
| COc1ccc(CCO[C@@H]2CCCC[C@H]2N2CCCC2)cc1OC | 1.3 |
| FC(F)(F)c1ccccc1CCO[C@@H]1CCCC[C@H]1N1CCOCC1 | 0.8 |
| COc1ccc(CCCO[C@@H]2CCCC[C@H]2N2CCOCC2)c(OC)c1 | 1.2 |
| COc1ccc(CCO[C@@H]2CCCC[C@H]2N2CCC3(C2)OCCO3)cc1OC | 1.6 |
| O=C1CCN([C@@H]2CCCC[C@H]2OCCc2ccccc2C(F)(F)F)C1 | 2.7 |
| Brc1cccc(CCO[C@@H]2CCCC[C@H]2N2CCOCC2)c1 | 1.9 |
| COc1ccc(CCO[C@@H]2CCCC[C@H]2N2CCC(=O)C2)cc1OC | 4.5 |
| FC(F)(F)c1ccccc1CCO[C@H]1CCCC[C@H]1N1CCOCC1 (single isomer, unassigned) | 1.4 |
| COc1ccc(CCCCO[C@@H]2CCCC[C@H]2N2CCOCC2)cc1OC | 1.5 |
| O=C1CCN([C@@H]2CCCC[C@H]2OCCc2cccc3ccccc23)CC1 | 0.9 |
| c1ccc2c(CCO[C@@H]3CCCC[C@H]3N3CCOCC3)csc2c1 | 0.8 |
| C=C[C@H]1CN2CC[C@H]1C[C@@H]2[C@@H](O)c1ccnc2ccc(OC)cc12 [QUINIDINE] | 4 |
| OC1CCN([C@@H]2CCCC[C@H]2OCCc2cccc3ccccc23)C1 (mixture of isomers) | 0.8 |
| OC1CCN([C@@H]2CCCC[C@@H]2OCCc2cccc3ccccc23)C1 (mixture of isomers) | 0.4 |
| O=C1CCN([C@@H]2CCCC[C@H]2OCCc2ccc(Br)c3ccccc23)C1 | 2.8 |
| c1cc(CCO[C@@H]2CCCC[C@H]2N2CCOCC2)c2ccsc2c1 | 0.7 |

| Compound | ED50 [µmol/kg/min] |
| --- | --- |
| COc1ccc(CCO[C@@H]2CCCC[C@H]2N2CCNCC2)cc1OC | 1.6 |
| COc1ccc(CCCO[C@@H]2CCCC[C@H]2N2CCOCC2)cc1OC | 1.5 |
| Brc1ccc(CCO[C@H]2CCCC[C@H]2N2CCOCC2)cc1 (single isomer, unassigned) | 2 |
| Clc1cccc(Cl)c1CCO[C@@H]1CCCC[C@H]1N1CCSC1 | 6.5 |
| c1ccc2cc(CCO[C@@H]3CCCC[C@H]3N3CCOCC3)ccc2c1 | 0.8 |
| COCCN(CCOC)[C@@H]1CCCC[C@H]1OCCc1ccc2ccccc2c1 | 3 |
| OC1CCN([C@@H]2CCCC[C@H]2OCCc2ccccc2Br)C1 (mixture of isomers) | 0.4 |
| c1ccc2c(CCO[C@@H]3CCCC[C@H]3N3CCCC3)cccc2c1 | 0.9 |
| O=C1CCN([C@@H]2CCCC[C@H]2OCC(c2ccccc2)c2ccccc2)C1 | 2.5 |
| Brc1ccc(OCCO[C@@H]2CCCC[C@H]2N2CCOCC2)cc1 | 2.5 |
| O=C1CCN([C@@H]2CCCC[C@H]2OCCc2ccc(Br)cc2)C1 | 8 |
| Brc1ccc(CCO[C@@H]2CCCC[C@H]2N2CCOCC2)cc1 | 2.5 |
| CCN(CC)CC(=O)Nc1c(C)cccc1C [LIDOCAINE] | 4.5 |
| O=C1CCN([C@@H]2CCCC[C@@H]2OCCc2cccc3ccccc23)C1 | 1.6 |
| Brc1ccccc1CCO[C@@H]1CCCC[C@H]1N1CCOCC1 | 1 |
| c1cc(CCO[C@@H]2CCCC[C@H]2N2CCOCC2)c2ccoc2c1 | 1.4 |
| COc1ccc(CCO[C@@H]2CCCC[C@H]2N2CCOCC2)cc1OC | 1.5 |
| Clc1cccc(Cl)c1CCO[C@@H]1CCCC[C@H]1N1CCOCC1 | 1.2 |

Target: Potassium voltage-gated channel subfamily A member 5 (Homo sapiens, UniProt P22460)
Test: Inhibition of human potassium channel Kv1.5 by patch-clamp method
Details: not given

Potassium voltage-gated channel subfamily A member 5, sequence (P22460 whole entry): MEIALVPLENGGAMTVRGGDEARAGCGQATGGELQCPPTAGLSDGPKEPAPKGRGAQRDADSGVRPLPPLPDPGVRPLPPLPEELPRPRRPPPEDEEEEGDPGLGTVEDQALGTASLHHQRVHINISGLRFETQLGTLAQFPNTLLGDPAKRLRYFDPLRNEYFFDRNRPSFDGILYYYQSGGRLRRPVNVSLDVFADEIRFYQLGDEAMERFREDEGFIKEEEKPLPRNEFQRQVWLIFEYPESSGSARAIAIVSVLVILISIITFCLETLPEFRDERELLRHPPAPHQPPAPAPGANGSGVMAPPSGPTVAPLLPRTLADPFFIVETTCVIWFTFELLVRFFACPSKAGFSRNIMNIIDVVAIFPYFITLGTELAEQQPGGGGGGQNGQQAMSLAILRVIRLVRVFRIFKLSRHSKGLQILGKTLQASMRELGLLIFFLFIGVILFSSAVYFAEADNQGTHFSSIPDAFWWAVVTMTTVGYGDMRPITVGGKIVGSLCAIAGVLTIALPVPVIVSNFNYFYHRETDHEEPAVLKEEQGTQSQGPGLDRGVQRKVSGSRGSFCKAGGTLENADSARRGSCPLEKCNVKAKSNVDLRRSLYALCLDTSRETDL

| Compound | IC50 [µM] |
| --- | --- |
| CCN(CC)CC(=O)Nc1c(C)cccc1C [LIDOCAINE] | 2190 |
| O=C(NCC1CCCCN1)c1cc(OCC(F)(F)F)ccc1OCC(F)(F)F (centres undefined) [FLECAINIDE] | 51 |

Target: T1, A-type voltage-gated potassium channel KCND2 (Rattus norvegicus, UniProt Q63881)
T1 sequence (Q63881 whole entry): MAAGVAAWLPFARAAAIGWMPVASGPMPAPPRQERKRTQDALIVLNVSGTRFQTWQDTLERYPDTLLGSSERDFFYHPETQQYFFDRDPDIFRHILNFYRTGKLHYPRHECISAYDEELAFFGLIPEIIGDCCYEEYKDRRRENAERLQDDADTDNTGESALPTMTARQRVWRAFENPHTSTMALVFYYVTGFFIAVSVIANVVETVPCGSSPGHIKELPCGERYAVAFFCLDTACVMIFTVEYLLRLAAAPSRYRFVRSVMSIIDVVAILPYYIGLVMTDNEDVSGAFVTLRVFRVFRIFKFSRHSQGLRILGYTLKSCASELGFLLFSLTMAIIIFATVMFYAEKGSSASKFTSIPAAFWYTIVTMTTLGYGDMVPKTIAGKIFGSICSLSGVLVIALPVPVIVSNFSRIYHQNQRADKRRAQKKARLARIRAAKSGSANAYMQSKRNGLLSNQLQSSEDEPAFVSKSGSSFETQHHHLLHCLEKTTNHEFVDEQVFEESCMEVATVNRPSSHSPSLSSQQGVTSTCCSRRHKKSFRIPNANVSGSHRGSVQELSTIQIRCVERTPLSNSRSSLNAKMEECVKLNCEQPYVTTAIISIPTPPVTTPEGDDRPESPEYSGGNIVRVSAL
Test: Inhibition of rat potassium channel Kv4.2 by patch-clamp method
Details: not given

| Compound | IC50 [µM] |
| --- | --- |
| CCN(CC)CC(=O)Nc1c(C)cccc1C [LIDOCAINE] | 1210 |
| O=C(NCC1CCCCN1)c1cc(OCC(F)(F)F)ccc1OCC(F)(F)F (centres undefined) [FLECAINIDE] | 10.1 |

Organism: Canis familiaris
Test: Reduction of blood pressure in Mongrel dog vagal atrial fibrillation model
Type: functional, organism-based
Details: Canis lupus familiaris

| Compound | Activity |
| --- | --- |
| O=C1CCN([C@@H]2CCCC[C@H]2OCCc2cccc3ccccc23)C1 (stereo in doubt; 26) | inactive |

Organism: Canis familiaris
Test: Reduction of heart rate in Mongrel dog vagal atrial fibrillation model
Type: functional, organism-based
Details: Canis lupus familiaris

| Compound | Activity |
| --- | --- |
| O=C1CCN([C@@H]2CCCC[C@H]2OCCc2cccc3ccccc23)C1 (stereo in doubt; 26) | inactive |

Test system: not listed separately
Test: in vivo
Details: CD1, mouse, iv
Description: Toxicity in intravenously dosed CD1 mouse

| Compound | LD50 [µmol/kg] |
| --- | --- |
| Brc1ccc(CCCO[C@@H]2CCCC[C@H]2N2CCOCC2)cc1 | 209 |
| COc1ccc(CCCO[C@@H]2CCCC[C@H]2N2CCOCC2)c(OC)c1 | 130 |
| c1ccc2c(CCO[C@@H]3CCCC[C@H]3N3CCOCC3)csc2c1 | 52 |
| c1cc(CCO[C@@H]2CCCC[C@H]2N2CCOCC2)c2ccsc2c1 | 38 |
| COc1ccc(CCCO[C@@H]2CCCC[C@H]2N2CCOCC2)cc1OC | 112 |
| c1ccc2cc(CCO[C@@H]3CCCC[C@H]3N3CCOCC3)ccc2c1 | 130 |
| Brc1ccc(CCO[C@@H]2CCCC[C@H]2N2CCOCC2)cc1 | 103 |
| Brc1ccccc1CCO[C@@H]1CCCC[C@H]1N1CCOCC1 | 86 |
| c1cc(CCO[C@@H]2CCCC[C@H]2N2CCOCC2)c2ccoc2c1 | 56 |
| COc1ccc(CCO[C@@H]2CCCC[C@H]2N2CCOCC2)cc1OC | 97 |
| O=C(NCC1CCCCN1)c1cc(OCC(F)(F)F)ccc1OCC(F)(F)F (centres undefined) [FLECAINIDE] | 20 |
| Clc1cccc(Cl)c1CCO[C@@H]1CCCC[C@H]1N1CCOCC1 | 76 |
